Laboratory results as given in patent publication US5859333A, “Plants and processes for obtaining them” (Zeneca Limited, priority 1992, dated 1999).
Where two headings read alike, the source gives them in different places. Where no end group is shown, it is not given here.

What was measured:
[1] = target: T1, Rabbit muscle SGP (Oryctolagus cuniculus, UniProt P13280); experiment: Self-glucosylation activity of rabbit muscle SGP (glycogenin); type: biochemical; conditions: for inhibition of the self-glucosylating protein in rabbit muscle: act as alternative substrates
T1 construct: from tissue; host or cells: rabbit muscle
T1 sequence (P13280 1-333): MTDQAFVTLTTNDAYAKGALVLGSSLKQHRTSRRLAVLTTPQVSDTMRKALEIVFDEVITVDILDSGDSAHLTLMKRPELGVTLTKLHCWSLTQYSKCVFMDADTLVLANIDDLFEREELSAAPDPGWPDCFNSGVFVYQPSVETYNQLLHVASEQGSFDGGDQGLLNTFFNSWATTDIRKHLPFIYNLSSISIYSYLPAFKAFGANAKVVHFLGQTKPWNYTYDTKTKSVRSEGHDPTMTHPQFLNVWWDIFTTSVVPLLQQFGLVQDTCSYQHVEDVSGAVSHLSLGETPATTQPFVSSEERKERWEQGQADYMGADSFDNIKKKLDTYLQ

[2] = target: T2, sweet corn SGP (Zea mays, UniProt P80607); experiment: Self-glucosylating protein (SGP) assay, incorporation of 14C-glucose from UDP-[14C]glucose into TCA-precipitable protein; type: biochemical; conditions: for inhibitory effect on activity of sweet corn SGP: result in words; for stimulating effect of divalent cation on sweet corn SGP activity: concentration dependence measured, manganese at 5 mM
T2 construct: not recombinant
T2 sequence (P80607 whole entry): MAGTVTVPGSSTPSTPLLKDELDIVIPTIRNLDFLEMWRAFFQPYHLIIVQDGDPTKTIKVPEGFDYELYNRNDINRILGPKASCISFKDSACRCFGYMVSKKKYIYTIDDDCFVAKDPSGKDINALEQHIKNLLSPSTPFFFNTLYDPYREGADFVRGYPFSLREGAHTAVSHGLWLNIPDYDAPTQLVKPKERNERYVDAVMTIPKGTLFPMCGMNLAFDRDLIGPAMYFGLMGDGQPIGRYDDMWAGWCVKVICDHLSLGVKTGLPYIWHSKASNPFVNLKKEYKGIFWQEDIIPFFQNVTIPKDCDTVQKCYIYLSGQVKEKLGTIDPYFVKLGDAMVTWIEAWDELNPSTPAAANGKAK
Experimental: The reaction was stopped by the addition of 1 ml of 10% TCA (trichloroacetic acid). After standing for 10 minutes the sample was passed through a nitrocellulose filter, type HA 0.45 uM, washed with about 3 ml 10% TCA and approximately 10 ml of water and the filter dried under an infrared lamp. Following this, the filter was placed in 4 ml of scintillation liquid (Ecolume) and measured for ^14 C radioactivity in a Searle Delta 300 6890 liquid scintillation counter.
The radioactivity measured on the filter represents ^14 C-glucose that was incorporated into TCA-precipitable material (assuming no conversion to the glucose molecule into any other compound). […] Endogenously glucosylated SGP would not be detectable and could not be quantitated by this method.

[3] = test system: proteins of molecular weight higher than SGP; conditions: 16 fold purified extract, 24 hr
[4] = target: amylogenin (self-glucosylating protein, SGP) from maize (Zea mays) endosperm (Zea mays) (UniProt P80607)

With `Nc1ncnc2c1ncn2[C@@H]1O[C@H](COP(=O)(O)OP(=O)(O)OP(=O)(O)O)[C@@H](O)[C@H]1O` [ATP, adenosine triphosphate] the IC50 ([1]; read-out: concentration giving 50% inhibition of rabbit muscle SGP) was 3.5 mM, the IC50 [2] was 0.1 mM and the “inhibitory effect on activity of sweet corn SGP” value (from here on “inhibitory effect on activity”) [2] was “potent inhibitor”. For the same compound, the “potency as inhibitor of sweet corn SGP relative to rabbit muscle SGP” value ([2]; sweet corn SGP vs rabbit muscle SGP) was 30 fold.
In the case of `[Ca+2]` [Calcium], the “stimulating effect of divalent cation on sweet corn SGP activity” value [2] is reported as “no stimulatory effect”.
`O=C(O)CN(CCN(CC(=O)O)CC(=O)O)CC(=O)O` [EDTA, ethylene diamine tetra acetate] was tested, and the “sweet corn SGP activity after treatment with chelator” value ([2]; treated with EDTA) was “looses all its activity”.
For `[Cl][Mn][Cl]` [Manganese, MnCl2], the “effect on radioglucosylation of higher molecular weight proteins” value ([3]; 1 mM) was “proceeds”, the “effect on radioglucosylation of higher molecular weight proteins” value ([3]; 5 mM) was “inhibited” and the “stimulation of muscle SGP by divalent cation” value ([1]; result in words) was “stimulated”. The “stimulating effect of divalent cation on sweet corn SGP activity” value [2] was “most potent stimulating effect”.
In the case of `N=C(N)NCCC[C@H](N)C(=O)O` [arginine], the “inhibitory effect on activity” value [2] is reported as “No effect”.
With `[Mg+2]` [magnesium] the “maximum stimulating effect on sweet corn SGP” value ([2]; at 10 mM concentration) was “about 50%”.
With `O=[N+]([O-])c1ccc(O)cc1` [p-Nitrophenol] the “inhibitory effect on activity” value [2] was “no effect”.
For `O=[N+]([O-])c1ccc(OC2O[C@H](CO)[C@@H](O[C@H]3O[C@H](CO)[C@@H](O)[C@H](O)[C@H]3O)[C@H](O)[C@H]2O)cc1` (some centres unmarked) [p-nitro-phenylmaltose], the “inhibition of the self-glucosylating protein in rabbit muscle” value (“inhibition” for short) ([1]; result in words) was “inhibited”.
In the case of `O=[N+]([O-])c1ccc(OC2O[C@H](CO)[C@@H](O[C@H]3O[C@H](CO)[C@@H](O[C@H]4O[C@H](CO)[C@@H](O[C@H]5O[C@H](CO)[C@@H](O)[C@H](O)[C@H]5O)[C@H](O)[C@H]4O)[C@H](O)[C@H]3O)[C@H](O)[C@H]2O)cc1` (some centres unmarked) [p-nitrophenyl- maltotetrose], the “inhibition” value ([1]; result in words) is reported as “inhibited”.
With `O=[N+]([O-])c1ccc(O[C@H]2O[C@H](CO)[C@@H](O)[C@H](O)[C@H]2O)cc1` [p-nitrophenyl-alpha-glucoside] the “inhibitory effect on activity” value [2] was “no effect”.
With `O=[N+]([O-])c1ccc(O[C@@H]2O[C@H](CO)[C@@H](O)[C@H](O)[C@H]2O)cc1` [p-nitrophenyl-beta-glucoside] the “inhibitory effect on activity” value [2] was “no effect”.
In the case of `O=[N+]([O-])c1ccc(OC2O[C@H](CO)[C@@H](O[C@H]3O[C@H](CO)[C@@H](O[C@H]4O[C@H](CO)[C@@H](O)[C@H](O)[C@H]4O)[C@H](O)[C@H]3O)[C@H](O)[C@H]2O)cc1` (some centres unmarked) [p-nitrophenylmaltotriose], the “inhibition” value ([1]; result in words) is reported as “inhibited”.
TPCK-trypsin (enzyme) showed a proteolysis (trypsinolysis) of SGP [4] of 70%.
For “synthetic peptide comprising the same amino acid sequence as the glucosylated tryptic peptide T2: synthetic peptide with the sequence of tryptic peptide T2 (SEQ ID NO: 2, E G A N F V X G Y P F S L R) (EGANFVXGYPFSLR; not fully specified; X: residue not identified in the source)”, the “inhibitory effect on activity” value [2] was “No effect”.
